What follows are molecules tested against T1, CYP3A4 (Homo sapiens, UniProt P08684) (assay: Assay to assess irreversible CYP3A4 inhibition (mechanism-based inhibition) in human liver microsomes). Settings: 2-20 μM, preincubation 0-50 min, 6β-hydroxytestosterone formation.
T1 construct: human liver microsomes (pool from various individuals); from tissue; host or cells: human liver microsomes (pool from various individuals)
Type: in vitro ADME
Excerpt: 8. Assay to Assess Irreversible CYP3A4 Inhibition
Cytochrom P450 enzyme inhibition, especially irreversible enzyme inhibition, also referred to as mechanism-based inhibition (MBI), is an unwanted metabolic property of a substance which may, on concurrent administration of other medicaments, lead to considerable drug interactions. Criteria for the presence of an irreversible inhibition are a time-, concentration- and cofactor- (nicotinamide adenine dinucleotide phosphate, NADPH) dependent inhibition. To this end, the compounds of the invention are incubated in vitro with human liver microsomes, the influence on the CYP3A4 activity and the metabolic degradation of the novel active ingredient is determined, and the prototypical parameters kinact, Ki and the partition ratio r are ascertained therefrom.
The compounds of the invention are incubated with concentrations of 2-20 μM. To this end, stock solutions of the active ingredients with a concentration of 0.2-2 mM are prepared in acetonitrile and then pipetted with a 1:100 dilution into the incubation mixture. The liver microsomes are incubated in 50 mM potassium phosphate buffer (pH 7.4) with and without NADPH-generating system consisting of 1 mM NADP^+, 5 mM glucose 6-phosphate and 1 unit of glucose 6-phosphate dehydrogenase, at 37° C. After defined preincubation times of 0-50 min, aliquots are removed from these mixtures, diluted 1:25 in a new incubation, and incubated in the presence of testosterone and new NADPH-generating system again for 20 min. These incubation mixtures are stopped with acetonitrile (final concentration about 30% v/v), and the protein is removed by centrifugation at about 15 000×g. The samples stopped in this way are either analyzed directly or stored at −20° C. until analyzed.
The analysis takes place by high performance liquid chromatography with mass spectrometry detection (LC-MS). The formation of 6β-hydroxytestosterone as measure of CYP3A4 activity, and the test substance still remaining is quantified. The parameters kinact, Ki and the partition ratio r are determined therefrom so as to assess the novel active ingredients in relation to MBI.

T1 sequence (P08684 whole entry): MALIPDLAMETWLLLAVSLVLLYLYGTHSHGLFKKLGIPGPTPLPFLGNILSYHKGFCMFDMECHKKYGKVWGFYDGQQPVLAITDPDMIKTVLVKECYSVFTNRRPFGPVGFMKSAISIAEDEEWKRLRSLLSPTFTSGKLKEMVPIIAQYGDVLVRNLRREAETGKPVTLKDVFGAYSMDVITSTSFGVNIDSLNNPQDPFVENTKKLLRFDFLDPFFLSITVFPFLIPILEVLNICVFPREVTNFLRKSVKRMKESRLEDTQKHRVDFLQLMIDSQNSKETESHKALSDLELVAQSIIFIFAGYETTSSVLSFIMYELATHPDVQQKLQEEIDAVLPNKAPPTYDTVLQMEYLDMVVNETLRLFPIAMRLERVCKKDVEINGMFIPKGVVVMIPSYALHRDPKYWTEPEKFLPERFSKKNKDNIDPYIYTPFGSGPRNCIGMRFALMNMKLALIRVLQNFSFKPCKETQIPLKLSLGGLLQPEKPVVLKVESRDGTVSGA

Partition ratio r	SMILES
100	CS(=O)(=O)Cc1cccc2c(C(CCC#N)c3ccc(C(F)(F)F)cc3)c[nH]c12 (single isomer, unassigned) [Example 56-1, 4-{7-[(Methylsulfonyl)methyl]-1H-indol-3-yl}-4-[4-(trifluoromethyl)phenyl]butanonitrile]
>500	CS(=O)(=O)Cc1cccc2c(C(CCC#N)c3ccc4sccc4c3)c[nH]c12 (centres unmarked) [Example 73, 4-(1-Benzothiophen-5-yl)-4-{7-[(methylsulfonyl)methyl]-1H-indol-3-yl}butanonitrile]
120	CCC(CCC#N)(c1ccc(Cl)cc1)c1c[nH]c2c(CS(C)(=O)=O)cccc12 (centres unmarked) [Example 172, 4-(4-Chlorophenyl)-4-{7-[(methylsulfonyl)methyl]-1H-indol-3-yl}hexanonitrile]
>500	CS(=O)(=O)Cc1cccc2c(C(c3ccc(F)cc3)c3ccc(C(F)(F)F)cc3)c[nH]c12 (centres unmarked) [Example 113, 3-{(4-Fluorophenyl) [4-(trifluoromethyl)phenyl]methyl}-7-[(methylsulfonyl)methyl]-1H-indole]
>200	CS(=O)(=O)Cc1cccc2c(C(c3ccc(Cl)cc3)C3CC3(F)F)c[nH]c12 (single isomer, unassigned) [Example 261-1, 3-[(4-Chlorophenyl)(2,2-difluorocyclopropyl)methyl]-7-[(methylsulfonyl)methyl]-1H-indole]
>500	CS(=O)(=O)Cc1cccc2c(C(CCC#N)c3ccc4c(c3)OC(F)(F)O4)c[nH]c12 (centres unmarked) [Example 169, 4-(2,2-Difluoro-1,3-benzodioxol-5-yl)-4-{7-[(methylsulfonyl)methyl]-1H-indol-3-yl}butanonitrile]
220	CS(=O)(=O)Cc1cccc2c(C(CCC#N)c3ccc(Cl)cc3F)c[nH]c12 (single isomer, unassigned) [Example 59-1, 4-(4-Chloro-2-fluorophenyl)-4-{7-[(methylsulfonyl)methyl]-1H-indol-3-yl}butanonitrile]

Further lines, the molecule ahead of its results:

SMILES	Partition ratio r
CS(=O)(=O)Cc1cc(F)cc2c(C(c3ccc(Cl)cc3)C3CC3C#N)c[nH]c12 (single isomer, unassigned) [Example 277-1-1, 2-[(4-Chlorophenyl){5-fluoro-7-[(methylsulfonyl)methyl]-1H-indol-3-yl}methyl]cyclopropane-carbonitrile]	>200
CCC(CCO)(c1ccc(Cl)cc1)c1c[nH]c2c(CS(C)(=O)=O)cccc12 (centres unmarked) [Example 147, 3-(4-Chlorophenyl)-3-{7-[(methylsulfonyl)methyl]-1H-indol-3-yl}pentan-1-ol]	90
CS(=O)(=O)Cc1cc(F)cc2c(C(c3ccc(F)cc3Cl)C3CC3C#N)c[nH]c12 (single isomer, unassigned) [Example 266-1, 2-[(2-Chloro-4-fluorophenyl){5-fluoro-7-[(methylsulfonyl)methyl]-1H-indol-3-yl}methyl]cyclopropanecarbonitrile]	>200
CS(=O)(=O)Cc1cc(F)cc2c(C(c3ccc(C(F)(F)F)cc3F)C3CC3C#N)c[nH]c12 (single isomer, unassigned) [Example 271-1-1, 2-({5-Fluoro-7-[(methylsulfonyl)methyl]-1H-indol-3-yl}[2-fluoro-4-(trifluoro-methyl)phenyl]methyl)cyclopropanecarbonitrile]	>200
CS(=O)(=O)Cc1cccc2c(C(c3ccc(F)cc3)c3ccc(Cl)cc3F)c[nH]c12 (single isomer, unassigned) [Example 118-1, 3-[(4-Chloro-2-fluorophenyl)(4-fluorophenyl)methyl]-7-[(methylsulfonyl)methyl]-1H-indole]	250
CS(=O)(=O)Cc1cccc2c(C3(C4CC4)CCc4cc(F)ccc43)c[nH]c12 (centres unmarked) [Example 107, 3-(1-Cyclopropyl-5-fluoro-2,3-dihydro-1H-inden-1-yl)-7-[(methylsulfonyl)methyl]-1H-indole]	>400
CS(=O)(=O)Cc1cc(F)cc2c(C(c3ccc(Cl)cc3F)C3CC3C#N)c[nH]c12 (single isomer, unassigned) [Example 273-1-2, 2-[(4-Chloro-2-fluorophenyl){5-fluoro-7-[(methylsulfonyl)methyl]-1H-indol-3-yl}methyl]cyclopropanecarbonitrile]	>200

Reference: US8063234B2, “Substituted 7-sulfanylmethyl-, 7-sulfinylmethyl- and 7-sulfonylmethylindoles and the use thereof” (Bayer Schering Pharma Aktiengesellschaft, priority 2008, dated 2011)
